In PubChem BioAssay (NCI):
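96-well plates; 48 h exposure; 5 concentrations. Endpoints by linear interpolation between flanking doses. Not reached: highest tested concentration assigned. Definition used: TGI = concentration required for complete inhibition of growth.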 Residues, ends and D or L forms follow the SMILES beside them. *: point of attachment. Boc = CC(C)(C)OC(=O)*; OBn = c1ccc(CO*)cc1

system: NCI-H226 lung; assay: growth of human tumour cells (NCI), 48 h

`O=c1c(-c2ccccc2)c2n(c3ccccc13)CCN2` and `O=C1C(Cl)=C(N2C(=O)CCC2=O)C(=O)c2ccccc21` cannot be ordered by TGI: over 100 µM for the first, over 100 µM for the second.

`C=CCN1CCN([C@H](c2ccc(C(=O)N(CC)CC)cc2)c2cccc(OC)c2)CC1` and `CC(C)CC(NC(=O)OC(C)(C)C)C(=O)NC(CC(=O)OCc1ccccc1)C(N)=O` (stereo not drawn) (Boc-Leu-Asp(OBn)-NH2; configuration not given here) cannot be ordered by TGI: over 25 µM for the first, over 100 µM for the second.

system: NCI-H23 lung; assay: growth of human tumour cells (NCI), 48 h

`Cc1cc(Nc2ccc(S(=O)(=O)O)cc2)c2ccccc2n1` and `O=c1c(-c2ccccc2)c2n(c3ccccc13)CCN2` cannot be ordered by TGI: over 100 µM for the first, over 100 µM for the second.

`C=CCN1CCN([C@H](c2ccc(C(=O)N(CC)CC)cc2)c2cccc(OC)c2)CC1` and `CC(C)CC(NC(=O)OC(C)(C)C)C(=O)NC(CC(=O)OCc1ccccc1)C(N)=O` (stereo not drawn) (Boc-Leu-Asp(OBn)-NH2; configuration not given here) cannot be ordered by TGI: over 25 µM for the first, over 100 µM for the second.

With `O=C1C(Cl)=C(N2C(=O)CCC2=O)C(=O)c2ccccc21` the TGI was 79.8 µM.

system: NCI-H460 lung; assay: growth of human tumour cells (NCI), 48 h

`O=c1c(-c2ccccc2)c2n(c3ccccc13)CCN2` and `O=C1C(Cl)=C(N2C(=O)CCC2=O)C(=O)c2ccccc21` cannot be ordered by TGI: over 100 µM for the first, over 100 µM for the second.

system: NCI-H522 lung; assay: growth of human tumour cells (NCI), 48 h

Going from `Cc1cc(Nc2ccc(S(=O)(=O)O)cc2)c2ccccc2n1` to `O=C1C(Cl)=C(N2C(=O)CCC2=O)C(=O)c2ccccc21`, the TGI falls from over 100 µM to 59.6 µM.

`C=CCN1CCN([C@H](c2ccc(C(=O)N(CC)CC)cc2)c2cccc(OC)c2)CC1` and `CC(C)CC(NC(=O)OC(C)(C)C)C(=O)NC(CC(=O)OCc1ccccc1)C(N)=O` (stereo not drawn) (Boc-Leu-Asp(OBn)-NH2; configuration not given here) cannot be ordered by TGI: over 25 µM for the first, over 100 µM for the second.

system: NCI/ADR-RES ovarian; assay: growth of human tumour cells (NCI), 48 h

`Cc1cc(Nc2ccc(S(=O)(=O)O)cc2)c2ccccc2n1` and `O=c1c(-c2ccccc2)c2n(c3ccccc13)CCN2` cannot be ordered by TGI: over 100 µM for the first, over 100 µM for the second.

`C=CCN1CCN([C@H](c2ccc(C(=O)N(CC)CC)cc2)c2cccc(OC)c2)CC1` and `CC(C)CC(NC(=O)OC(C)(C)C)C(=O)NC(CC(=O)OCc1ccccc1)C(N)=O` (stereo not drawn) (Boc-Leu-Asp(OBn)-NH2; configuration not given here) cannot be ordered by TGI: over 25 µM for the first, over 100 µM for the second.

For `O=C1C(Cl)=C(N2C(=O)CCC2=O)C(=O)c2ccccc21`, the TGI was over 100 µM.

system: OVCAR-3 ovarian; assay: growth of human tumour cells (NCI), 48 h

Compared with `Cc1cc(Nc2ccc(S(=O)(=O)O)cc2)c2ccccc2n1`, `O=c1c(-c2ccccc2)c2n(c3ccccc13)CCN2` is lower in TGI: over 100 µM for the first, 66.6 µM for the second.

`C=CCN1CCN([C@H](c2ccc(C(=O)N(CC)CC)cc2)c2cccc(OC)c2)CC1` and `CC(C)CC(NC(=O)OC(C)(C)C)C(=O)NC(CC(=O)OCc1ccccc1)C(N)=O` (stereo not drawn) (Boc-Leu-Asp(OBn)-NH2; configuration not given here) cannot be ordered by TGI: over 25 µM for the first, over 100 µM for the second.

`O=C1C(Cl)=C(N2C(=O)CCC2=O)C(=O)c2ccccc21` was tested, and the TGI was 34.3 µM.

system: OVCAR-4 ovarian; assay: growth of human tumour cells (NCI), 48 h

`Cc1cc(Nc2ccc(S(=O)(=O)O)cc2)c2ccccc2n1` and `O=c1c(-c2ccccc2)c2n(c3ccccc13)CCN2` cannot be ordered by TGI: over 100 µM for the first, over 100 µM for the second.

`C=CCN1CCN([C@H](c2ccc(C(=O)N(CC)CC)cc2)c2cccc(OC)c2)CC1` and `CC(C)CC(NC(=O)OC(C)(C)C)C(=O)NC(CC(=O)OCc1ccccc1)C(N)=O` (stereo not drawn) (Boc-Leu-Asp(OBn)-NH2; configuration not given here) cannot be ordered by TGI: over 25 µM for the first, over 100 µM for the second.

system: OVCAR-5 ovarian; assay: growth of human tumour cells (NCI), 48 h

`Cc1cc(Nc2ccc(S(=O)(=O)O)cc2)c2ccccc2n1` and `O=c1c(-c2ccccc2)c2n(c3ccccc13)CCN2` cannot be ordered by TGI: over 100 µM for the first, over 100 µM for the second.

`C=CCN1CCN([C@H](c2ccc(C(=O)N(CC)CC)cc2)c2cccc(OC)c2)CC1` and `CC(C)CC(NC(=O)OC(C)(C)C)C(=O)NC(CC(=O)OCc1ccccc1)C(N)=O` (stereo not drawn) (Boc-Leu-Asp(OBn)-NH2; configuration not given here) cannot be ordered by TGI: over 25 µM for the first, over 100 µM for the second.

`O=C1C(Cl)=C(N2C(=O)CCC2=O)C(=O)c2ccccc21` gave a TGI of 49.7 µM.

system: OVCAR-8 ovarian; assay: growth of human tumour cells (NCI), 48 h

`Cc1cc(Nc2ccc(S(=O)(=O)O)cc2)c2ccccc2n1` and `O=c1c(-c2ccccc2)c2n(c3ccccc13)CCN2` cannot be ordered by TGI: over 100 µM for the first, over 100 µM for the second.

`C=CCN1CCN([C@H](c2ccc(C(=O)N(CC)CC)cc2)c2cccc(OC)c2)CC1` and `CC(C)CC(NC(=O)OC(C)(C)C)C(=O)NC(CC(=O)OCc1ccccc1)C(N)=O` (stereo not drawn) (Boc-Leu-Asp(OBn)-NH2; configuration not given here) cannot be ordered by TGI: over 25 µM for the first, over 100 µM for the second.

`O=C1C(Cl)=C(N2C(=O)CCC2=O)C(=O)c2ccccc21` showed a TGI of over 100 µM.

system: PC-3 prostate; assay: growth of human tumour cells (NCI), 48 h

`Cc1cc(Nc2ccc(S(=O)(=O)O)cc2)c2ccccc2n1` and `O=c1c(-c2ccccc2)c2n(c3ccccc13)CCN2` cannot be ordered by TGI: over 100 µM for the first, over 100 µM for the second.

`C=CCN1CCN([C@H](c2ccc(C(=O)N(CC)CC)cc2)c2cccc(OC)c2)CC1` and `CC(C)CC(NC(=O)OC(C)(C)C)C(=O)NC(CC(=O)OCc1ccccc1)C(N)=O` (stereo not drawn) (Boc-Leu-Asp(OBn)-NH2; configuration not given here) cannot be ordered by TGI: over 25 µM for the first, over 100 µM for the second.

`O=C1C(Cl)=C(N2C(=O)CCC2=O)C(=O)c2ccccc21` was tested, and the TGI was over 100 µM.

system: RPMI-8226 leukemia; assay: growth of human tumour cells (NCI), 48 h

`Cc1cc(Nc2ccc(S(=O)(=O)O)cc2)c2ccccc2n1` and `O=c1c(-c2ccccc2)c2n(c3ccccc13)CCN2` cannot be ordered by TGI: over 100 µM for the first, over 100 µM for the second.

Work on `C=CCN1CCN([C@H](c2ccc(C(=O)N(CC)CC)cc2)c2cccc(OC)c2)CC1` yielded a TGI of over 25 µM.

system: RXF 393 renal; assay: growth of human tumour cells (NCI), 48 h

Going from `O=C1C(Cl)=C(N2C(=O)CCC2=O)C(=O)c2ccccc21` to `CC(C)CC(NC(=O)OC(C)(C)C)C(=O)NC(CC(=O)OCc1ccccc1)C(N)=O` (stereo not drawn) (Boc-Leu-Asp(OBn)-NH2; configuration not given here), the TGI rises from 45.7 µM to over 100 µM.

system: SF-268 CNS; assay: growth of human tumour cells (NCI), 48 h

`Cc1cc(Nc2ccc(S(=O)(=O)O)cc2)c2ccccc2n1` and `O=c1c(-c2ccccc2)c2n(c3ccccc13)CCN2` cannot be ordered by TGI: over 100 µM for the first, over 100 µM for the second.

`C=CCN1CCN([C@H](c2ccc(C(=O)N(CC)CC)cc2)c2cccc(OC)c2)CC1` and `CC(C)CC(NC(=O)OC(C)(C)C)C(=O)NC(CC(=O)OCc1ccccc1)C(N)=O` (stereo not drawn) (Boc-Leu-Asp(OBn)-NH2; configuration not given here) cannot be ordered by TGI: over 25 µM for the first, over 100 µM for the second.

In the case of `O=C1C(Cl)=C(N2C(=O)CCC2=O)C(=O)c2ccccc21`, the TGI is reported as over 100 µM.

system: SF-295 CNS; assay: growth of human tumour cells (NCI), 48 h

`Cc1cc(Nc2ccc(S(=O)(=O)O)cc2)c2ccccc2n1` and `O=c1c(-c2ccccc2)c2n(c3ccccc13)CCN2` cannot be ordered by TGI: over 100 µM for the first, over 100 µM for the second.

`C=CCN1CCN([C@H](c2ccc(C(=O)N(CC)CC)cc2)c2cccc(OC)c2)CC1` and `CC(C)CC(NC(=O)OC(C)(C)C)C(=O)NC(CC(=O)OCc1ccccc1)C(N)=O` (stereo not drawn) (Boc-Leu-Asp(OBn)-NH2; configuration not given here) cannot be ordered by TGI: over 25 µM for the first, over 100 µM for the second.

Compound `O=C1C(Cl)=C(N2C(=O)CCC2=O)C(=O)c2ccccc21` has a TGI of over 100 µM.

system: SF-539 CNS; assay: growth of human tumour cells (NCI), 48 h

`Cc1cc(Nc2ccc(S(=O)(=O)O)cc2)c2ccccc2n1` and `O=c1c(-c2ccccc2)c2n(c3ccccc13)CCN2` cannot be ordered by TGI: over 100 µM for the first, over 100 µM for the second.

`C=CCN1CCN([C@H](c2ccc(C(=O)N(CC)CC)cc2)c2cccc(OC)c2)CC1` and `CC(C)CC(NC(=O)OC(C)(C)C)C(=O)NC(CC(=O)OCc1ccccc1)C(N)=O` (stereo not drawn) (Boc-Leu-Asp(OBn)-NH2; configuration not given here) cannot be ordered by TGI: over 25 µM for the first, over 100 µM for the second.

In the case of `O=C1C(Cl)=C(N2C(=O)CCC2=O)C(=O)c2ccccc21`, the TGI is reported as over 100 µM.

system: SK-MEL-2 melanoma; assay: growth of human tumour cells (NCI), 48 h

First: Cc1cc(Nc2ccc(S(=O)(=O)O)cc2)c2ccccc2n1
Second: O=c1c(-c2ccccc2)c2n(c3ccccc13)CCN2
The TGI of the first is higher: over 100 µM for the first, 61.1 µM for the second.

For `C=CCN1CCN([C@H](c2ccc(C(=O)N(CC)CC)cc2)c2cccc(OC)c2)CC1`, the TGI was over 25 µM.
